According to paper PMC10686828, “DMSOP-cleaving enzymes are diverse and widely distributed in marine microorganisms” (Nature Microbiology, 2023):

Key:
[1] = biological target: T1, DddY (Acinetobacter bereziniae) (Acinetobacter bereziniae, UniProt N8X9V6); experiment: HPLC of DMSO and acrylate; assay type: biochemical; details: 5 mM DMSOP, pH 8.0, 30 °C
T1 construct: gene F963_02809; pET-22b, C-terminal His tag, E. coli BL21(DE3); Ni-NTA and gel filtration
T1 sequence (N8X9V6 22-401 limits assumed): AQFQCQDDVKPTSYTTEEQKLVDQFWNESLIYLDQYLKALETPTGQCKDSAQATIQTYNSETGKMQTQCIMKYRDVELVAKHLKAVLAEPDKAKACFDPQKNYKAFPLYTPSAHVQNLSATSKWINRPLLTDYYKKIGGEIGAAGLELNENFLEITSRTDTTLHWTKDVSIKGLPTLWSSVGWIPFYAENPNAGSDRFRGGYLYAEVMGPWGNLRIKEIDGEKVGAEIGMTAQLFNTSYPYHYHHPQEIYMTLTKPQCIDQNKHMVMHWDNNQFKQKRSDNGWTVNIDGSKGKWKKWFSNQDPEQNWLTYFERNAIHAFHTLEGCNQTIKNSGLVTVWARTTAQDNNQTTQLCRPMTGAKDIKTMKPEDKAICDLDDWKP

DddL = system: T2, DddL; experiment: HPLC of acrylate, initial rates, non-linear fit; assay type: biochemical; details: pH 8, 30 °C
T2 construct: pET-22b, C-terminal His tag, E. coli BL21(DE3)

Structure (SMILES): C[S+](C)(=O)CCC(=O)[O-] [DMSOP]
- HPLC of DMSO and acrylate [1]: purified DddY proteins yielded DMSO and acrylate from DMSOP
- Km (DddL): 65 ± 10.9 mM
